Among the data in patent publication US20080255192A1, “Methods and Compositions for Selectin Inhibition” (Wyeth, priority 2007, published 2008) are inhibition values, retold here.

The target in this test is T1, P-selectin/PSGL-1 interaction (Homo sapiens, UniProt P16109).
T1 construct: comprised of the lectin and epidermal growth factor-like (EGF) domains expressed in CHO cells; made in house; host or cells: CHO cells (P-LE)
T1 sequence (P16109 42-198): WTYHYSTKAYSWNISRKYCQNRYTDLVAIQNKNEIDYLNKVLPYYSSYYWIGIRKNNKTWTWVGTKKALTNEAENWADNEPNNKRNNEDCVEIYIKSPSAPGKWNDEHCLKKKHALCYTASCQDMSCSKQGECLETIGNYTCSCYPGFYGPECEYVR
Put plainly: Biacore P-Selectin/PSGL-1 Inhibition Assay (surface plasmon resonance). The class given is binding. As to conditions: 250 uM test compound, 500 nM P.LE, immobilized PSGL-1 19ek, 10% DMSO, pH 7.4. The essentials:
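Biotinylated monomeric human PSGL-1 "19ek" on streptavidin chip (600–700 RU); compounds preincubated 1 h, then mixed with 500 nM P-LE (lectin-EGF, CHO-expressed) at 250 or 500 μM compound, 10% DMSO, HEPES buffer with 1 mM CaCl2/MgCl2, pH 7.4. SPR at 25 °C; percent binding inhibition from double-referenced signals.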
With `COc1ccc(C2(c3nc4c5c(ccc4c(C(=O)O)c3O)CCCC5)CC2)cc1` [Compound 51, 3-hydroxy-2-(1-(4-methoxyphenyl)cyclopropyl)-7,8,9,10-tetrahydrobenzo[h]quinoline-4-carboxylic acid], the inhibition (commonly the relative decrease from the control value, in per cent) at 250 µM stood at 38%.

As for `CCc1cccc2c(C(=O)O)c(O)c(C3(c4ccc(C(F)(F)F)cc4)CC3)nc12` [Compound 87, 8-ethyl-3-hydroxy-2-(1-(4-(trifluoromethyl)phenyl)cyclopropyl)quinoline-4-carboxylic acid], the inhibition at 250 µM was found to be 61%.

The compound `O=C(O)c1c(O)c(C2(c3ccc(Cl)cc3)CC2)nc2c(F)cccc12` [Compound 7, 2-(1-(4-chlorophenyl)cyclopropyl)-8-fluoro-3-hydroxyquinoline-4-carboxylic acid] yielded an inhibition at 250 µM of at most 10%.

The compound `CCC(c1ccccc1)c1nc2c(C(C)C)cccc2c(C(=O)O)c1O` (stereo not shown) [Compound 127, 3-Hydroxy-8-isopropyl-2-(1-phenylpropyl)quinoline-4-carboxylic acid] came in with an inhibition at 250 µM of 65%.

On to `O=C(O)c1c(O)c(C2(c3ccc(C(F)(F)F)cc3)CC2)nc2c(-c3ccsc3)cccc12` [Compound 91, 3-hydroxy-8-(thiophen-3-yl)-2-(1-(4-(trifluoromethyl)phenyl)cyclopropyl)quinoline-4-carboxylic acid], for which the inhibition at 250 µM was at most 10%.

The compound `O=C(O)c1c(O)c(C2(c3ccc(Cl)cc3)CC2)nc2c(C(O)(C(F)(F)F)C(F)(F)F)cccc12` [Compound 41, 2-(1-(4-chlorophenyl)cyclopropyl)-8-(1,1,1,3,3,3-hexafluoro-2-hydroxypropan-2-yl)-3-hydroxyquinoline-4-carboxylic acid] yielded an inhibition at 250 µM of at most 10%.

`O=C(O)c1c(O)c(C2(c3ccccc3)CC2)nc2c(C3CC3)cccc12` [Compound 110, 8-cyclopropyl-3-hydroxy-2-(1-phenyl-cyclopropyl)-quinoline-4-carboxylic acid] yielded an inhibition at 250 µM of 13%.

On to `O=C(O)c1c(O)c(C2(c3ccc(Cl)cc3)CC2)nc2c(-c3ccsc3)cccc12` [Compound 37, 2-(1-(4-chlorophenyl)cyclopropyl)-3-hydroxy-8-(thiophen-3-yl)quinoline-4-carboxylic acid], for which testing at 250 µM gave an inhibition of 78%.

In turn, `Cc1cc(C(F)(F)F)cc2c(C(=O)O)c(O)c(C3(c4ccc(Cl)cc4)CC3)nc12` [Compound 97, 2-(1-(4-chlorophenyl)cyclopropyl)-3-hydroxy-8-methyl-6-(trifluoromethyl)quinoline-4-carboxylic acid] came in with an inhibition at 250 µM of 40%.

Consider `O=C(O)c1c(O)c(C2(c3ccc(Cl)cc3)CC2)nc2c(-c3ccccc3)cccc12` [Compound 6, 2-(1-(4-chlorophenyl)cyclopropyl)-3-hydroxy-8-phenylquinoline-4-carboxylic acid], for which the inhibition at 250 µM stood at 98%.

`O=C(O)c1c(O)c(C2(c3ccc(Cl)cc3)CC2)nc2cc(Cl)ccc12` [Compound 16, 7-chloro-2-(1-(4-chlorophenyl)cyclopropyl)-3-hydroxyquinoline-4-carboxylic acid] came in with an inhibition at 250 µM of 28%.

Take `CCc1cc(C(F)(F)F)c2nc(C3(c4ccccc4)CC3)c(O)c(C(=O)O)c2c1` [Compound 104, 6-ethyl-3-hydroxy-2-(1-phenylcyclopropyl)-8-(trifluoromethyl)quinoline-4-carboxylic acid]: testing at 250 µM gave an inhibition of 40%.

Compound `Cc1cc(C)c2nc(C3(c4ccc(Cl)cc4)CC3)c(O)c(C(=O)O)c2c1` [Compound 10, 2-(1-(4-chlorophenyl)cyclopropyl)-3-hydroxy-6,8-dimethylquinoline-4-carboxylic acid] returned an inhibition at 250 µM of 47%.
